For 32 compounds, Activity results are on record in US7795290B2 (Genentech, Inc., priority 2004, dated 2010).

The target in the assay is T1, AKT1 (Homo sapiens, UniProt P31749).
T1 construct: purchased Upstate 14-276
T1 sequence (P31749 whole entry): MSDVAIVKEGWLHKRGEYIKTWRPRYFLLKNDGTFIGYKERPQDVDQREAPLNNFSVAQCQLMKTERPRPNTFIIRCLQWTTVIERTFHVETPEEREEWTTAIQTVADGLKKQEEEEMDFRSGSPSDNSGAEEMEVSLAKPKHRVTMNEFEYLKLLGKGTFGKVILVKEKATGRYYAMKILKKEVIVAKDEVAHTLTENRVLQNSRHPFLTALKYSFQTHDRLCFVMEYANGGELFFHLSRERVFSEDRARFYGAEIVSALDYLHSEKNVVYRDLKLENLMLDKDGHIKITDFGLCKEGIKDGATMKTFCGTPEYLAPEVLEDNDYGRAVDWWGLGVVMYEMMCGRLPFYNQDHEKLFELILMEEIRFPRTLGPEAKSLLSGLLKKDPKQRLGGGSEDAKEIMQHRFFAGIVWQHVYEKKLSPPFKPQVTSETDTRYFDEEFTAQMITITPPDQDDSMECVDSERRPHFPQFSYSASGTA
The assay can be described thus: HTS ATP-utilizing enzyme assay, off-chip mobility-shift (Caliper HTS 250). The conditions noted are these: kinase named = inhibitory activity/selectivity; test compound 10 μM; active = greater than three-sigma from mean. The format is biochemical. An excerpt:
The following procedures describe the reagent and plate preparation for a HTS of an ATP-utilizing enzyme, such as a protein kinase, run in an off-chip mobility-shift assay format. The following provides an HTS protocol for running a protein kinase HTS screen on a Caliper HTS 250 microfluidics system. The following parameters are dependent on the protein kinase used and can be determined by one skilled in the art as part of a typical assay development process. For example, the peptide substrate used can be identified from the current literature, by screening a peptide library of potential protein kinase substrates, or by other applicable means accepted in the field.
The following table provides typical screen assay parameters appropriate for a Caliper HTS 250 microfluidics system used to assay AKT1. Parameters used to assay other protein kinases can be determined by one skilled in the art.
Assays to determine the kinase inhibitory activity of chemical entities of the present disclosure were performed using a Caliper HTS 250 microfluidics device, Greiner U-bottom assay plates, a Multidrop for transfer of reagents, and Biomek FX (AMNCBM03) software. Initially, 2.4 μL of a 1 mM solution of a test compound in 100% DMSO was added to a well of the Greiner U-bottom plate. A single Greiner U-bottom plate having 24×16 wells could include multiple test compounds. […] Using the Biomek FX, 10 μL of 0.5 M EDTA was added by the span-8 to wells, indicated as 100% Control and 2.4 μL of 100% DMSO was added by the span-8 to wells, indicated as 0% Control. […] The total reaction volume in each well was 25 μL, and the concentration of the test compound was 10 μM. The assay plate was incubated for 2.5 hrs at 20° C. to 22° C. […] The inhibition of the ATP-utilizing enzyme, such as a particular protein kinase, was determined by measuring the ratio of the peptide substrate to phosphorylated product for each well of the assay plate using the Caliper HTS 250 system.
The use of three-sigma statistical limits represents a conservative method for declaring potential hits among targets. The three-sigma activity, as well as the mean population activity, can be different for each target enzyme.
Each chemical entity listed in Table 2 was tested for protein kinase inhibitory activity according to the biological assays and definitions of protein kinase inhibitory activity as described herein.
As for `O=C(O)c1ccc(-c2csc(N(CCCN3CCOCC3)C(=O)c3cccs3)n2)cc1` [4-(2-(N-(3-morpholinopropyl)thiophene-2-carboxamido)thiazol-4-yl)benzoic acid], the Activity entry was “AKT1”.

With `COc1ccc(-c2csc(N(CCCN3CCOCC3)C(=O)c3ccc(Cl)cc3)n2)cc1` [4-chloro-N-(4-(4-methoxyphenyl)thiazol-2-yl)-N-(3-morpholinopropyl)benzamide], the Activity entry is “AKT1”.

In the case of `COc1ccc(-c2csc(N(CCCN3CCOCC3)C(=O)c3cc(Cl)ccn3)n2)cc1` [4-chloro-N-(4-(4-methoxyphenyl)thiazol-2-yl)-N-(3-morpholinopropyl)picolinamide], the Activity entry is given as “AKT1”.

Consider `O=C(c1ccc(F)cc1)N(CCCN1CCOCC1)c1nc(-c2ccccc2)cs1` [4-fluoro-N-(3-morpholinopropyl)-N-(4-phenylthiazol-2-yl)benzamide], for which the Activity entry is listed as “AKT1”.

In the case of `COc1ccc(-c2csc(N(CCCN3CCOCC3)C(=O)c3ccc(F)cc3)n2)cc1` [4-fluoro-N-(4-(4-methoxyphenyl)thiazol-2-yl)-N-(3-morpholinopropyl)benzamide], the Activity result was “AKT1”.

As for `Cc1ccc(C(=O)N(CCCN2CCOCC2)c2nc(-c3ccccc3)cs2)cc1` [4-methyl-N-(3-morpholinopropyl)-N-(4-phenylthiazol-2-yl)benzamide], the Activity result is on record as “AKT1”.

In the case of `COc1ccc(-c2csc(N(CCCN3CCOCC3)C(=O)c3ccc(Cl)s3)n2)cc1` [5-chloro-N-(4-(4-methoxyphenyl)thiazol-2-yl)-N-(3-morpholinopropyl)thiophene-2-carboxamide], the Activity result was “AKT1”.

Turning to `CNC(=O)[C@H]1CCCN1CCCN(C(=O)c1cccs1)c1nc(-c2cc3ccccc3o2)cs1` [(R)-1-(3-(N-(4-(benzofuran-2-yl)thiazol-2-yl)thiophene-2-carboxamido)propyl)-N-methylpyrrolidine-2-carboxamide], the Activity result is “AKT1”.

On to `O=C(O)[C@H]1CCCN1CCCN(C(=O)c1cccs1)c1nc(-c2cc3ccccc3o2)cs1` [(R)-1-(3-(N-(4-(benzofuran-2-yl)thiazol-2-yl)thiophene-2-carboxamido)propyl)pyrrolidine-2-carboxylic acid], for which the Activity result is reported as “AKT1”.

Turning to `CN(C)C(=O)[C@@H]1CCCN1CCCN(C(=O)c1cccs1)c1nc(-c2cc3ccccc3o2)cs1` [(S)-1-(3-(N-(4-(benzofuran-2-yl)thiazol-2-yl)thiophene-2-carboxamido)propyl)-N,N-dimethylpyrrolidine-2-carboxamide], the Activity result is listed as “AKT1”.

Turning to `CC(C)(C)OC(=O)[C@@H]1CCCN1CCCN(C(=O)c1cccs1)c1nc(-c2cc3ccccc3o2)cs1` [(S)-tert-butyl 1-(3-(N-(4-(benzofuran-2-yl)thiazol-2-yl)thiophene-2-carboxamido)propyl)pyrrolidine-2-carboxylate], the Activity entry is “AKT1”.

Regarding `O=C(c1cccs1)N(CCCN1CCC[C@H]1CO)c1nc(-c2cc3ccccc3o2)cs1` [(S)—N-(4-(benzofuran-2-yl)thiazol-2-yl)-N-(3-(2-(hydroxymethyl)pyrrolidin-1-yl)propyl)thiophene-2-carboxamide], the Activity result is recorded as “AKT1”.

Turning to `COC[C@@H]1CCCN1CCCN(C(=O)c1cccs1)c1nc(-c2cc3ccccc3o2)cs1` [(S)—N-(4-(benzofuran-2-yl)thiazol-2-yl)-N-(3-(2-(methoxymethyl)pyrrolidin-1-yl)propyl)thiophene-2-carboxamide], the Activity entry was “AKT1”.

Consider `O=C(c1cccs1)N(CCCC(=O)N1c2ccccc2C[C@H]1CO)c1nc(-c2cc3ccccc3o2)cs1` [(S)—N-(4-(benzofuran-2-yl)thiazol-2-yl)-N-(4-(2-(hydroxymethyl)indolin-1-yl)-4-oxobutyl)thiophene-2-carboxamide], for which the Activity result was “AKT1”.

With `O=C(Nc1ccc2c(c1)OCCO2)c1csc(N(CCCN2CCOCC2)C(=O)c2cccs2)n1` [N-(2,3-dihydrobenzo[b][1,4]dioxin-6-yl)-2-(N-(3-morpholinopropyl)thiophene-2-carboxamido)thiazole-4-carboxamide], the Activity result is “AKT1”.

`O=C(c1cccs1)N(CCCn1ccnc1)c1nc(-c2cc3ccccc3o2)cs1` [N-(3-(1H-imidazol-1-yl)propyl)-N-(4-(benzofuran-2-yl)thiazol-2-yl)thiophene-2-carboxamide]: the Activity entry is listed as “AKT1”.

Consider `O=C1CCCN1CCCN(C(=O)c1ccco1)c1nc(-c2cc(-c3ccccc3)no2)cs1` [N-(3-(2-oxopyrrolidin-1-yl)propyl)-N-(4-(3-phenylisoxazol-5-yl)thiazol-2-yl)furan-2-carboxamide], for which the Activity result is “AKT1”.

`O=C1CCCN1CCCN(C(=O)c1cccs1)c1nc(-c2cc(-c3ccccc3)no2)cs1` [N-(3-(2-oxopyrrolidin-1-yl)propyl)-N-(4-(3-phenylisoxazol-5-yl)thiazol-2-yl)thiophene-2-carboxamide]: the Activity entry is “AKT1”.

With `CC(=O)NC1CCN(C(=O)CCN(C(=O)c2cccs2)c2nc(-c3cc4ccccc4o3)cs2)C1` (centres unmarked) [N-(3-(3-acetamidopyrrolidin-1-yl)-3-oxopropyl)-N-(4-(benzofuran-2-yl)thiazol-2-yl)thiophene-2-carboxamide], the Activity entry was “AKT1”.

For `CC(=O)NC1CCN(CCCN(C(=O)c2cccs2)c2nc(-c3cc4ccccc4o3)cs2)C1` (centres unmarked) [N-(3-(3-acetamidopyrrolidin-1-yl)propyl)-N-(4-(benzofuran-2-yl)thiazol-2-yl)thiophene-2-carboxamide], the Activity result was “AKT1”.

`CC(=O)NCCCC(=O)NCCCN(C(=O)c1cccs1)c1nc(-c2cc3ccccc3o2)cs1` [N-(3-(4-acetamidobutanamido)propyl)-N-(4-(benzofuran-2-yl)thiazol-2-yl)thiophene-2-carboxamide]: the Activity result is “AKT1”.

Consider `CC(=O)N1CCN(CCCN(C(=O)c2cccs2)c2nc(-c3cc4ccccc4o3)cs2)CC1` [N-(3-(4-acetylpiperazin-1-yl)propyl)-N-(4-(benzofuran-2-yl)thiazol-2-yl)thiophene-2-carboxamide], for which the Activity entry is listed as “AKT1”.

Turning to `CN1CCN(CCCN(C(=O)c2ccco2)c2nc(-c3cc(-c4ccccc4)no3)cs2)CC1` [N-(3-(4-methylpiperazin-1-yl)propyl)-N-(4-(3-phenylisoxazol-5-yl)thiazol-2-yl)furan-2-carboxamide], the Activity result is “AKT1”.

`CN1CCN(CCCN(C(=O)c2ccccc2)c2nc(-c3ccccc3)cs2)CC1` [N-(3-(4-methylpiperazin-1-yl)propyl)-N-(4-phenylthiazol-2-yl)benzamide]: the Activity entry is “AKT1”.

`CN1CCN(CCCN(C(=O)c2ccco2)c2nc(-c3ccccc3)cs2)CC1` [N-(3-(4-methylpiperazin-1-yl)propyl)-N-(4-phenylthiazol-2-yl)furan-2-carboxamidevv]: the Activity result was “AKT1”.

`O=C(CCN(C(=O)c1cccs1)c1nc(-c2cc3ccccc3o2)cs1)NCC1COCCO1` (centres unmarked) [N-(3-((1,4-dioxan-2-yl)methylamino)-3-oxopropyl)-N-(4-(benzofuran-2-yl)thiazol-2-yl)thiophene-2-carboxamide]: the Activity entry is reported as “AKT1”.

`Cc1cc(C(=O)NCCCN(C(=O)c2cccs2)c2nc(-c3cc4ccccc4o3)cs2)nn1C` [N-(3-(N-(4-(benzofuran-2-yl)thiazol-2-yl)thiophene-2-carboxamido)propyl)-1,5-dimethyl-1H-pyrazole-3-carboxamide]: the Activity entry is “AKT1”.

Turning to `O=C(NCCCN(C(=O)c1cccs1)c1nc(-c2cc3ccccc3o2)cs1)c1ccncc1` [N-(3-(N-(4-(benzofuran-2-yl)thiazol-2-yl)thiophene-2-carboxamido)propyl)isonicotinamide], the Activity result is listed as “AKT1”.

For the compound `COc1ccc(OC)c(-c2csc(N(CCCN3CCCCCC3)C(=O)c3ccccc3)n2)c1` [N-(3-(azepan-1-yl)propyl)-N-(4-(2,5-dimethoxyphenyl)thiazol-2-yl)benzamide], the Activity result is given as “AKT1”.

Regarding `COc1ccc(OC)c(-c2csc(N(CCCN3CCCCCC3)C(=O)c3ccco3)n2)c1` [N-(3-(azepan-1-yl)propyl)-N-(4-(2,5-dimethoxyphenyl)thiazol-2-yl)furan-2-carboxamide], the Activity result is “AKT1”.

With `COc1ccc(OC)c(-c2csc(N(CCCN3CCCCCC3)C(=O)c3cccs3)n2)c1` [N-(3-(azepan-1-yl)propyl)-N-(4-(2,5-dimethoxyphenyl)thiazol-2-yl)thiophene-2-carboxamide], the Activity result is “AKT1”.

As to `COc1ccc(-c2csc(N(CCCN3CCCCCC3)C(=O)c3ccccc3)n2)cc1` [N-(3-(azepan-1-yl)propyl)-N-(4-(4-methoxyphenyl)thiazol-2-yl)benzamide], the Activity result is “AKT1”.
